Target: Isocitrate dehydrogenase [NADP] cytoplasmic (Homo sapiens, UniProt O75874, R132H)
Experiment: Inhibition of IDH1 R132H mutant (unknown origin) using a-ketoglutarate as substrate by fluorescence biochemical assay

Isocitrate dehydrogenase [NADP] cytoplasmic, sequence (O75874 2-414 R132H limits assumed): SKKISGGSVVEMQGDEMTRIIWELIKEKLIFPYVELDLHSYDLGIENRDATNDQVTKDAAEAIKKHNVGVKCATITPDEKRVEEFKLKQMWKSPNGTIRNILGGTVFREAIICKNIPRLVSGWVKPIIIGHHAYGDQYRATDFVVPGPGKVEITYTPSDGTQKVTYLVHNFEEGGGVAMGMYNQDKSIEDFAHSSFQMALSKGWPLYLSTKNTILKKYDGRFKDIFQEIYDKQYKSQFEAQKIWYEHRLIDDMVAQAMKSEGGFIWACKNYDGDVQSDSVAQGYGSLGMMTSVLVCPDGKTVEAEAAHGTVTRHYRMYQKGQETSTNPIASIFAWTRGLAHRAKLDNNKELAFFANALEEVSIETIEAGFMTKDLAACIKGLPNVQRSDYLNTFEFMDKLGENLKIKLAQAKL

| SMILES | IC50 [nM] |
| --- | --- |
| C[C@H](Nc1nccc(N2C(=O)OC[C@]2(C)C2CC2)n1)c1ccc(CN2CCC(O)(C(F)(F)F)CC2)cc1F | < 15.9 |
| C[C@H](Nc1nccc(N2C(=O)OC[C@]2(C)C2CC2)n1)c1ccc(CN2CCC(N)CC2)c(F)c1 | 194 |

Source: ChEMBL document CHEMBL3352118, “Inhibitors of Mutant IDH for the Treatment of Cancer” (ACS Med Chem Lett, 2014)
